Where two headings read alike, the source gives them in different places.
Legend:
[1] = biological target: human recombinant 5-HT1A receptor (Homo sapiens (Human), UniProt P08908); test: 5-HT1A receptor agonism activity test (inhibition of cAMP production, LANCE cAMP 384 Kit); type: cell-based; conditions: HEK293 cells expressing human recombinant 5-HT1A receptor; test concentration 0.1 nM-10000 nM; read-out: 5-HT1A receptor agonism (EC50, mol/L)
Text: Pharmacological Test 1) 5-HT1A Receptor Agonism Activity Test

[2] = system: PCP-induced hyperactivity in mice; test: In vivo efficacy test (PCP-induced high locomotor activity in mice); conditions: male ICR mice, oral administration 45 minutes before PCP 7 mg/kg i.p.; dose significantly reducing PCP-induced hyperactivity vs model group
Experimental: 5) In Vivo Efficacy Test (PCP-Induced High Locomotor Activity in Mice)
PCP solution was prepared in a suitable concentration for 7 mg/kg dosage with saline. […] Male ICR mice (18-22 g) were used as test animals. All the test mice were randomly divided into vehicle control group, model control group, positive control group, and treatment group(8 mice per group). Mice of each group were orally administered test compounds or vehicle. After 45 minutes PCP solution was administered (7 mg/kg) through intraperitoneal injection. The mice track after drug or saline administration was recorded and analyzed by the spontaneous, open-field video analysis system. […] The mice track was recorded and analyzed by the spontaneous, open-field video analysis system. The total distance in each group was calculate and expressed as mean+SD and statistical evaluation was performed by one way ANOVA.

[3] = biological target: human recombinant 5-HT2A receptor (Homo sapiens (Human), UniProt P28223); test: 5-HT2A receptor antagonism activity test (FLIPR Calcium 5 Assay Kit); conditions: read-out: 5-HT2A receptor antagonism (IC50, mol/L)
[4] = biological target: human recombinant D2 receptor (Homo sapiens (Human), UniProt P14416); test: D2 receptor antagonism activity test (inhibition of dopamine-induced decrease of cAMP production, LANCE cAMP 384 Kit); conditions: read-out: D2 receptor antagonism (IC50, mol/L), HEK293 cells expressing human recombinant D2 receptor, 0.1 nM-10000 nM
[5] = CHO-K1 cells expressing human recombinant 5-HT2A receptor, α-methyl-5-hydroxytryptamine 300 nM, 0.1 nM-10000 nM

human recombinant D2 receptor, sequence (P14416 whole entry): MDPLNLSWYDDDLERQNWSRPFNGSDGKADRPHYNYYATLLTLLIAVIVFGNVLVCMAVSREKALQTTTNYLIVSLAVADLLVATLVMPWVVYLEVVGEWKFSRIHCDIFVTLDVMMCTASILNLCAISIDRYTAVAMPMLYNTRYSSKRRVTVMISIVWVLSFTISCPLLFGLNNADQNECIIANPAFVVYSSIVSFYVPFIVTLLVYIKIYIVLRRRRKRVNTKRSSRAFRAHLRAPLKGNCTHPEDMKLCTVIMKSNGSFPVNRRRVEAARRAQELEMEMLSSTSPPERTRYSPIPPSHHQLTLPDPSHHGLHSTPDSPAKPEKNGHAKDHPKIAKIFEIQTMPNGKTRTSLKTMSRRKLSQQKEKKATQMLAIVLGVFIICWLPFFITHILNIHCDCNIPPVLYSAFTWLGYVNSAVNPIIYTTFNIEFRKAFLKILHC
human recombinant 5-HT2A receptor, sequence (P28223 whole entry): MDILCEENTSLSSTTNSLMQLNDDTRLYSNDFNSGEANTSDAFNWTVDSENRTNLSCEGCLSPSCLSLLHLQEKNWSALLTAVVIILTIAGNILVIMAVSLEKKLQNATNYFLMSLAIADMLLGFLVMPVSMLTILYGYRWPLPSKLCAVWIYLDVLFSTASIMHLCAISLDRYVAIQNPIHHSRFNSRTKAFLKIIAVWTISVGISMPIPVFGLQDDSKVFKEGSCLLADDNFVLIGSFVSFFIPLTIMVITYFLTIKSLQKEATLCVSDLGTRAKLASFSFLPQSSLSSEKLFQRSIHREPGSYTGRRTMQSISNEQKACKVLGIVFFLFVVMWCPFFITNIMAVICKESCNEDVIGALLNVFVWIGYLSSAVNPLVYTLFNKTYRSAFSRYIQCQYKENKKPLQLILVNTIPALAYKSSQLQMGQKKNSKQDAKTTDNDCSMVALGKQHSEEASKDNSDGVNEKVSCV
human recombinant 5-HT1A receptor, sequence (P08908 whole entry): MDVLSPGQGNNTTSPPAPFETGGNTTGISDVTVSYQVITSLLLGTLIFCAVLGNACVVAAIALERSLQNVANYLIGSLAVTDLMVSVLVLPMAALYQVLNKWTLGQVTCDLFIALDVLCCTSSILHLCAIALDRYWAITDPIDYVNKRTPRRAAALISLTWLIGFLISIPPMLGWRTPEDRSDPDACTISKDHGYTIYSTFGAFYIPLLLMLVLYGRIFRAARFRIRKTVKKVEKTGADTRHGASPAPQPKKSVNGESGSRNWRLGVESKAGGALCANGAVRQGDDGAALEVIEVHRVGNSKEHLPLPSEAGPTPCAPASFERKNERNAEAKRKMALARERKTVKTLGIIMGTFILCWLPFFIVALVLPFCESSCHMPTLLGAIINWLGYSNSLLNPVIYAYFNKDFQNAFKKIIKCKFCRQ

| Compound | EC50 [1] [nM] | Effective dose [2] [mg/kg] | IC50 [3, 5] [nM] | IC50 [4] [nM] | IC50 [3] [nM] |
| --- | --- | --- | --- | --- | --- |
| O=C1CCc2ccc(CCN3CCN(c4cccc5sccc45)CC3)cc2N1 [Compound of example 19, 7-(2-(4-(benzo[b]thiophen-4-yl)piperazin-1-yl)ethyl)-3,4-dihydroquinolin-2(1H)-one] | 0.926 | 0.1 | 169 | 8.62 |  |
| O=C1CSc2ccc(CCN3CCN(c4cccc5sccc45)CC3)cc2N1 [Compound of example 31, 6-(2-(4-(benzo[b]thiophen-4-yl)piperazin-1-yl)ethyl)-2H-benzo[b][1,4]thiazin-3(4H)-one] | 0.68 | 1 | 52.2 | 92.7 |  |
| Cl.O=C1COc2ccc(CCN3CCN(c4cccc5sccc45)CC3)cc2N1 [Compound of example 30, 6-(2-(4-(benzo[b]thiophen-4-yl)piperazin-1-yl)ethyl)-2H-benzo[b][1,4]oxazin-3(4H)-one hydrochloride] |  | 0.3 |  | 34.2 | 42.1 |
| O=C1CCc2cc(CCCCN3CCN(c4cccc5sc(F)cc45)CC3)ccc2N1 [Compound of example 74, 6-(4-(4-(2-fluorobenzo[b]thiophen-4-yl)piperazin-1-yl)butyl)-3,4-dihydroquinolin-2(1H)-one] | 20.8 | 3 | 874 | 1.06 |  |
| COc1cc2c(N3CCN(CCc4ccc5c(c4)CCC(=O)N5)CC3)cccc2s1 [Compound of example 89, 6-(2-(4-(2-methoxybenzo[b]thiophen-4-yl)piperazin-1-yl)ethyl)-3,4-dihydroquinolin-2(1H)-one] | 1.29 | 1 | 1050 | 8.06 |  |
| Cl.S=C1CCc2ccc(CCN3CCN(c4cccc5sccc45)CC3)cc2N1 [Compound of example 133, 7-(2-(4-(benzo[b]thiophen-4-yl)piperazin-1-yl)ethyl)-3,4-dihydroquinoline-2(1H)-thione hydrochloride] |  | 1 |  | 10.9 |  |
| Cl.O=c1ccc2ccc(CCN3CCN(c4cccc5sc(F)cc45)CC3)cc2[nH]1 [Compound of example 57, 7-(2-(4-(2-fluorobenzo[b]thiophen-4-yl)piperazin-1-yl)ethyl)quinolin-2(1H)-one hydrochloride] |  | 1 |  | 8.4 |  |
| O=c1[nH]c2ccc(CCN3CCN(c4cccc5sccc45)CC3)cc2o1 [Compound of example 68, 6-(2-(4-(benzo[b]thiophen-4-yl)piperazin-1-yl)ethyl)benzo[d]oxazol-2(3H)-one] |  | 0.3 |  |  | 4.82 |
| Cc1nc2n(c(=O)c1CCN1CCN(c3cccc4sc(F)cc34)CC1)CCCC2O.Cl (stereo not drawn) [Compound of example 131, 3-(2-(4-(2-fluorobenzo[b]thiophen-4-yl)piperazin-1-yl)ethyl)-9-hydroxy-2-methyl-6,7,8,9-tetrahydro-4H-pyrido[1,2-a]pyrimidin-4-one hydrochloride] | 26 | 3 |  |  | 51.3 |
| Cl.Cn1c(=O)n(C)c2cc(CCN3CCN(c4cccc5sccc45)CC3)ccc21 [Compound of example 87, 5-(2-(4-(benzo[b]thiophen-4-yl)piperazin-1-yl)ethyl)-1,3-dimethyl-1H-benzo[d]imidazol-2(3H)-one hydrochloride] | 4.5 | 1 | 88 |  |  |
| Cl.O=c1[nH]c2ccc(CCN3CCN(c4cccc5sccc45)CC3)cc2s1 [Compound of example 29, 6-(2-(4-(benzo[b]thiophen-4-yl)piperazin-1-yl)ethyl)benzo[d]thiazol-2(3H)-one hydrochloride] |  | 0.3 |  |  |  |
| Cl.O=C1Cc2cc(CCN3CCN(c4cccc5sccc45)CC3)c(Cl)cc2N1 [Compound of example 15, 5-(2-(4-(benzo[b]thiophen-4-yl)piperazin-1-yl)ethyl)-6-chloroindolin-2-one hydrochloride] |  | 0.1 to 1 |  |  |  |

— patent US10174011B2, “Heterocyclic compounds, process for preparation of the same and use thereof” (SHANGHAI INSTITUTE OF MATERIA MEDICA, CHINESE ACADEMY OF …, priority 2014, dated 2019)
